Patent publication US6617350B2, “Inhibitors of aspartyl protease” (priority 1999, dated 2003)
Where two headings read alike, the source gives them in different places.

How the values were obtained:
HIV-1 protease = HIV-1 protease (Human immunodeficiency virus type 1 group M subtype B, UniProt P04585); assay: biochemical; settings: Table 12; HIV-1 protease; read-out: Ki
HIV-1 (strain IIIB) = assay: microbe, parasite or virus in culture; assay type: cell-based; settings: anti-viral potency in MT-4 cells, read-out: IC50
[1] = Human immunodeficiency virus 1, IIIB, MT4, Table 12

| Molecule | Ki (HIV-1 protease) | IC50 (HIV-1 (strain IIIB); [1]) | IC50 (HIV-1 (strain IIIB); Table 12) |
| --- | --- | --- | --- |
| CNC(=O)CNC(=O)NCCC(C)(C)CN(CC(O)C(Cc1ccccc1)NC(=O)OC1COC2OCCC12)S(=O)(=O)c1ccc(OC)cc1 [Compound 228, (3R,3aS,6aR)hexahydrofuro[2,3-b]furan-3-yl N-(1S,2R)-1-benzyl-2-hydroxy-4-[(4-methoxyphenyl)sulfonyl]-6,6-dimethyl-10,13-dioxo-4,9,11,14-tetraazapentadec-1-ylcarbamate and (3S,3aR,6aS)hexahydrofuro[2,3-b]furan-3-yl N-(1S,2R)-1-benzyl-2-hydroxy-4-[(4-methoxyphenyl)sulfonyl]-6,6-dimethyl-10,13-dioxo-4,9,11,14-tetraazapentadec-1-ylcarbamate] | < 1 nM | 100 to 500 nM | – |
| CNc1cccc(S(=O)(=O)N(C[C@@H](O)[C@H](Cc2ccccc2)NC(=O)O[C@H]2CO[C@H]3OCC[C@H]32)CC(C)(C)CCCCN)c1 [Compound 241, (3R,3aS,6aR)hexahydrofuro[2,3-b]furan-3-yl N-[(1S,2R)-3-((6-amino-2,2-dimethylhexyl)[3-(methylamino)phenyl]sulfonylamino)-1-benzyl-2-hydroxypropyl]carbamate] | < 1 nM | 100 to 500 nM | – |
| CC(=O)CCC(C)(C)CN(CC(O)[C@H](Cc1ccccc1)NC(=O)OC1COC2OCCC12)S(=O)(=O)c1ccc2c(c1)OCO2 (stereo partly drawn) [Compound 240, (3R,3aS,6aR)-Hexahydrofuro[2,3-b]furan-3-yl N-((1S,2R)-1-benzyl-3-(2,2-dimethyl-5-oxohexyl)[(3,4-methylenedioxyphenyl)sulfonyl]amino-2-hydroxypropyl)carbamate] | < 1 nM | ≤ 100 nM | – |
| COc1ccc(S(=O)(=O)N(CC(O)[C@H](Cc2ccccc2)NC(=O)OC2COC3OCCC23)CC(C)(C)CCC(C)=NO)cc1 (stereo partly drawn) [Compound 227, (3R,3aS,6aR)-Hexahydrofuro[2,3-b]furan-3-yl N-((1S,2R)-1-benzyl-3-(2,2-dimethyl-5-hydroxyiminohexyl)[(4-methoxyphenyl)sulfonyl]amino-2-hydroxypropyl)carbamate] | < 1 nM | ≤ 100 nM | – |
| COc1ccc(S(=O)(=O)N(CCC(C)=O)C[C@@H](O)[C@H](Cc2ccccc2)NC(=O)OC2COCOC2)cc1 [Compound 281] | 1 to 10 nM | 100 to 500 nM | – |
| CC(=O)Nc1cccc(S(=O)(=O)N(C[C@@H](O)[C@H](Cc2ccccc2)NC(=O)O[C@H]2CO[C@H]3OCC[C@H]32)CC(C)(C)CCC#N)c1 [Compound 31, {(1S,2R)-3-[(3-Acetylamino-benzenesulfonyl)-(4-cyano-2,2-dimethyl-butyl)-amino]-1-benzyl-2-hydroxy-propyl}-carbamic acid (3R,3aS,6aR)hexahydro-furo[2,3-b]furan-3-yl ester] | < 1 nM | ≤ 100 nM | – |
| CC(C)(CCCCNS(C)(=O)=O)CN(C[C@@H](O)[C@H](Cc1ccccc1)NC(=O)O[C@H]1CO[C@H]2OCC[C@H]21)S(=O)(=O)c1ccc2c(c1)OCCO2 [Compound 256, (3R,3aS,6aR)hexahydrofuro[2,3-b]furan-3-yl N-[(1S,2R)-1-benzyl-3-((2,3-dihydro-1,4-benzodioxin-6-ylsulfonyl)2,2-dimethyl-6-[(methylsulfonyl)amino]hexylamino)-2-hydroxypropyl]carbamate] | < 1 nM | ≤ 100 nM | – |
| tert-Butyl N-(1S,2R)-1-benzyl-3-(4-cyanobutyl)[(4-methoxyphenyl)sulfonyl]amino-2-hydroxypropyl)carbamate [Compound 4] | 1 to 10 nM | – | 100 to 500 nM |
